Results as given in ChEMBL document CHEMBL1201862, “PubChem BioAssay data set” (2004).
Active and inactive are the calls of the source.

How the values were obtained:
[1] = cells; format: functional, cell-based
[2] = IOSE-T80 ovarian epithelial cell cytotoxicity, dose response, cytotoxicity control for PAX8 inhibitor project, plate reader, dry powder samples (AID 743045); format: functional, cell-based
[3] = target: Paired box protein Pax-8 (Homo sapiens, UniProt Q06710); assay: inhibitors of PAX8-driven TPO luciferase reporter, dose response, RMG-I cells, cherry-pick (AID 687027); format: functional, cell-based;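 note: luciferase reporter driven by Pax8 target thyroperoxidase promoter measured by SteadyGlo luminescence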
[4] = cytotoxicity toward DRD oncogenic fibroblasts, dose response, cell-based, non-viral oncogenic, luminescence (AID 1934); format: functional; details: Homo sapiens
[5] = PAX5 activity inhibitors, dose response, selectivity assay for PAX8 inhibitor project, cell-based, plate reader, dry powder samples (AID 743047); format: functional;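 note: HEK293 cells carrying a Pax5 driven CD19 promoter luciferase reporter; potency of inhibitors that lower reporter luminescence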
[6] = IGROV1 ovarian cancer cell cytotoxicity, dose response, PAX8 inhibitor project, plate reader, dry powder samples (AID 743043); format: functional, cell-based; details: IGROV-1
[7] = NIH:OVCAR-3 ovarian cancer cell cytotoxicity, dose response, PAX8 inhibitor project, plate reader, dry powder samples (AID 743044); format: functional, cell-based
[8] = system: BJ; assay: cells; format: functional, cell-based; details: Homo sapiens
[9] = cytotoxicity in OV-90 ovarian cancer cells, dose response, PAX8 inhibitor project, cell-based, plate reader, dry powder, SA8 (AID 743149); format: functional
[10] = Luminescence Cell-Based Dose Retest to Confirm Inhibitors of Cancer Stem Cells. [Related pubchem assays (depositor defined):AID2717, AID2721]; format: functional; details: Homo sapiens
[11] = cytotoxicity in COV434 cells, dose response, cytotoxicity control for PAX8 inhibitor project, cell-based, plate reader, dry powder, SA7 (AID 743145); format: functional
[12] = PAX2 cell-based inhibition, dose response, selectivity assay for PAX8 inhibitor project, plate reader, dry powder samples (AID 743048); format: functional;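 note: HEK293 cells carrying a WT1 promoter luciferase reporter driven by expressed Pax2; potency is for inhibition of Pax2 driven reporter signal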
[13] = target: T1, Nuclear receptor subfamily 0 group B member 1 (Homo sapiens, UniProt P51843); format: functional, cell-based;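 note: HEK293T cells transfected with SF-1 and DAX-1 plus StAR promoter luciferase reporter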
T1 sequence (P51843 whole entry): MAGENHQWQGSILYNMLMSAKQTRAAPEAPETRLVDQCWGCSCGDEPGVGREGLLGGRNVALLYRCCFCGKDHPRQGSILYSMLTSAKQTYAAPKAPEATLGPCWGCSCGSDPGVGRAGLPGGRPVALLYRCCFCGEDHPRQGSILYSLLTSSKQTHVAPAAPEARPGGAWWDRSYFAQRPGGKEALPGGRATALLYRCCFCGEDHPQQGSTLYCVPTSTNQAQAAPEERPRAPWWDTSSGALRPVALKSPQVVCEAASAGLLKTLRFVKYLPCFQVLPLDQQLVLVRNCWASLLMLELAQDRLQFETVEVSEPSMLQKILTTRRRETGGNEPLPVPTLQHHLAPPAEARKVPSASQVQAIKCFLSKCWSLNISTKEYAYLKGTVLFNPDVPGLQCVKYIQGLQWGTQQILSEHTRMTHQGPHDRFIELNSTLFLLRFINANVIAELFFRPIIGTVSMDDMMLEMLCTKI

[14] = A2780 ovarian cancer cell cytotoxicity, dose response, cytotoxicity control, plate reader, dry powder samples (AID 743046); format: functional, cell-based
[15] = cytotoxicity in HMLE control line with eGFP shRNA, dose response, counter-screen for HMLE_sh_ECad selective toxicity project, cell-based, HMLE_sh_eGFP, luminescence (AID 463074); format: functional, Homo sapiens;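 note: HMLE human mammary epithelial cells expressing control shRNA against eGFP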
[16] = cytotoxicity in COV362 ovarian cancer cells, dose response, cytotoxicity control for PAX8 inhibitor project, cell-based, plate reader, dry powder, SA12 (AID 743144); format: functional
[17] = cytotoxicity in OVCAR4 cells, dose response, cytotoxicity control for PAX8 inhibitor project, cell-based, plate reader, dry powder, SA11 (AID 743150); format: functional; details: OVCAR-4
[18] = cytotoxicity in HEK-293T cells, dose response, cytotoxicity control for TCR NF-kB inhibitor project, luminescence, T-cell screen hits (AID 489026); format: functional, cell-based;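 note: cells exposed to compound about 14 hours before the viability readout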
[19] = cytotoxicity dependent on PAX8, dose response, cell-based, plate reader, dry powder (AID 743049); format: functional
[20] = target: Ion channel NompC (Danio rerio, UniProt Q7T1G6); assay: Fluorescence counterscreen assay for TRPML3 agonists: dose response cell-based high-throughput screening assay to identify agonists of the transient receptor potential channel N1 (TRPN1). [Related pubchem assays: 1526, 1424, 1448 ]; format: functional
[21] = target: Peroxisome proliferator-activated receptor gamma/Nuclear receptor coactivator 2 (Homo sapiens, UniProt P37231); format: functional;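 note: agonist potency for raising coactivator recruitment to the receptor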
[22] = target: Peroxisome proliferator-activated receptor gamma/Nuclear receptor coactivator 1 (Homo sapiens, UniProt P37231); format: functional;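 note: agonist potency as compounds enhance coactivator SRC-1 recruitment to PPARgamma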
[23] = target: T2, Leucine aminopeptidase (Plasmodium falciparum 3D7, UniProt Q8IL11); assay: P. falciparum M17LAP inhibitors, primary screen, biochemical, fluorogenic H-Leu-NHMec substrate, 1536-well (AID 1619); format: functional
T2 sequence (Q8IL11 whole entry): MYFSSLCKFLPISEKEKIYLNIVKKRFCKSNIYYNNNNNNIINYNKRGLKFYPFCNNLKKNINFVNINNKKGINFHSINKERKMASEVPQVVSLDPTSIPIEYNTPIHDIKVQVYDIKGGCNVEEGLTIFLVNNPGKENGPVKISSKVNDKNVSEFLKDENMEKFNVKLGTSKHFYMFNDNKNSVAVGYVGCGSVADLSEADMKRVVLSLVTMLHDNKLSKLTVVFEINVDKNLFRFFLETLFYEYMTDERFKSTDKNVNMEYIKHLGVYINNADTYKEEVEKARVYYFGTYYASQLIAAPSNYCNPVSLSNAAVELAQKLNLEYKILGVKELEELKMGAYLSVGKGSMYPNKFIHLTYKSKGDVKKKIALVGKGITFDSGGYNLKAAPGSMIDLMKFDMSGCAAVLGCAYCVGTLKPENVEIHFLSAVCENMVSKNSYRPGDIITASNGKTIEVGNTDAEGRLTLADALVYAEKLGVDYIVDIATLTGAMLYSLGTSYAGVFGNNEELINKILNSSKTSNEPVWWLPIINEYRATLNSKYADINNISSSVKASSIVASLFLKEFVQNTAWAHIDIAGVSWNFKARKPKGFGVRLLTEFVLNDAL

[24] = target: T3, Oxysterols receptor LXR-beta (Homo sapiens, UniProt P55055); format: functional, cell-based;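 note: agonist activity at LXR measured by a cell-based luminescence readout across a dose range, run as a counterscreen for daf-12 agonists; HEK293 cells with Gal4-LXR fusion and GAL4-driven luciferase reporter; potency for activation of Gal4-LXR reporter so compounds are agonists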
T3 sequence (P55055 whole entry): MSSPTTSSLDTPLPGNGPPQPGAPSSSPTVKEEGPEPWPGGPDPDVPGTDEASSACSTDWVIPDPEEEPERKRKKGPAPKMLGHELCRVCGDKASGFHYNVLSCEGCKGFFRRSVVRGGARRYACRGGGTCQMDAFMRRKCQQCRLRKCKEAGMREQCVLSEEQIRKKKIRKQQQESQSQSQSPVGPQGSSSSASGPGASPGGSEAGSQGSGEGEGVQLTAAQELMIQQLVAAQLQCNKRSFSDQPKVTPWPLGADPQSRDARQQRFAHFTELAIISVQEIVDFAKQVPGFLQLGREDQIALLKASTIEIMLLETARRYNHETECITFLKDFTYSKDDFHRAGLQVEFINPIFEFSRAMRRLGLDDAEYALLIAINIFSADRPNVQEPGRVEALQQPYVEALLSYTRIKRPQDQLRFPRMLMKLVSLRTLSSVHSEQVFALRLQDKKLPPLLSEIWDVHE

[25] = target: Peroxisome proliferator-activated receptor gamma/Nuclear receptor coactivator 3 (Homo sapiens, UniProt P37231); format: functional;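 note: agonist potency for raising coactivator recruitment to the receptor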
[26] = target: Mucolipin-3 (Homo sapiens, UniProt Q8TDD5); assay: Dose response cell-based high-throughput screening assay for agonists of the transient receptor potential channel ML3 (TRPML3). [Related pubchem assays: 1526, 1424, 1448 ]; format: functional
[27] = target: T4, Replicative DNA helicase DnaB (Mycobacterium tuberculosis, UniProt P9WMR3); assay: DnaB intein splicing inhibitors, dose response, biochemical, cell-free fluorescence (AID 449749); format: functional
T4 sequence (P9WMR3 whole entry): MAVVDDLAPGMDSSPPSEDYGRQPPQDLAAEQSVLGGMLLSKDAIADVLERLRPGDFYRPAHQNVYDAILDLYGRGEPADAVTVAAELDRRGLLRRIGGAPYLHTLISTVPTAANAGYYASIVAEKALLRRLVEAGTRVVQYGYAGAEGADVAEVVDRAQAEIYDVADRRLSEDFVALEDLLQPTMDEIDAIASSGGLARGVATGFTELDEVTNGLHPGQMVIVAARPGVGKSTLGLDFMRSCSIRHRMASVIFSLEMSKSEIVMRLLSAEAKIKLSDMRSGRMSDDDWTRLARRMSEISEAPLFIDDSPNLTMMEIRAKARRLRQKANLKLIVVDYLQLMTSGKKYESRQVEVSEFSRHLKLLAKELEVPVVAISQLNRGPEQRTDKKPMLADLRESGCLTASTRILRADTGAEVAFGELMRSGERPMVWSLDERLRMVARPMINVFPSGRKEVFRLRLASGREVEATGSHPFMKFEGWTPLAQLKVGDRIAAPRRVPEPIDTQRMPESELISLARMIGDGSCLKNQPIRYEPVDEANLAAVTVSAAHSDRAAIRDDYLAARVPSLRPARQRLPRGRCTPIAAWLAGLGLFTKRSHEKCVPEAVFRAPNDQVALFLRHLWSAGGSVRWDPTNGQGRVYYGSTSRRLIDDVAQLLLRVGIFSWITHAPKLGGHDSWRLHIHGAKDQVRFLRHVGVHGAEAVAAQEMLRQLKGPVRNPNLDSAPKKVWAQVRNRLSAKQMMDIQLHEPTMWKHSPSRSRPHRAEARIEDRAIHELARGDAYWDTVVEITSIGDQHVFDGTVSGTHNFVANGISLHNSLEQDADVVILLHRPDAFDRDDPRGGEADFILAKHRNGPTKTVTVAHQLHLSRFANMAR

[28] = target: Nonstructural protein 1 (Influenza A virus, UniProt Q194T2); format: functional, Influenza A virus (A/California/07/2009(H1N1))
[29] = target: fMet-Leu-Phe receptor (Homo sapiens, UniProt P21462); assay: FPR ligands, dose response (AID 519); format: functional
[30] = target: T5, Protein RecA (Mycobacterium tuberculosis, UniProt P9WHJ3); assay: Fluorescence Cell-Free Homogeneous Dose Retest to Identify Inhibitors of RecA-Intein Splicing Activity. [Related pubchem assays (depositor defined):AID2097, AID2223, AID489010, AID492950]; format: functional
T5 sequence (P9WHJ3 whole entry): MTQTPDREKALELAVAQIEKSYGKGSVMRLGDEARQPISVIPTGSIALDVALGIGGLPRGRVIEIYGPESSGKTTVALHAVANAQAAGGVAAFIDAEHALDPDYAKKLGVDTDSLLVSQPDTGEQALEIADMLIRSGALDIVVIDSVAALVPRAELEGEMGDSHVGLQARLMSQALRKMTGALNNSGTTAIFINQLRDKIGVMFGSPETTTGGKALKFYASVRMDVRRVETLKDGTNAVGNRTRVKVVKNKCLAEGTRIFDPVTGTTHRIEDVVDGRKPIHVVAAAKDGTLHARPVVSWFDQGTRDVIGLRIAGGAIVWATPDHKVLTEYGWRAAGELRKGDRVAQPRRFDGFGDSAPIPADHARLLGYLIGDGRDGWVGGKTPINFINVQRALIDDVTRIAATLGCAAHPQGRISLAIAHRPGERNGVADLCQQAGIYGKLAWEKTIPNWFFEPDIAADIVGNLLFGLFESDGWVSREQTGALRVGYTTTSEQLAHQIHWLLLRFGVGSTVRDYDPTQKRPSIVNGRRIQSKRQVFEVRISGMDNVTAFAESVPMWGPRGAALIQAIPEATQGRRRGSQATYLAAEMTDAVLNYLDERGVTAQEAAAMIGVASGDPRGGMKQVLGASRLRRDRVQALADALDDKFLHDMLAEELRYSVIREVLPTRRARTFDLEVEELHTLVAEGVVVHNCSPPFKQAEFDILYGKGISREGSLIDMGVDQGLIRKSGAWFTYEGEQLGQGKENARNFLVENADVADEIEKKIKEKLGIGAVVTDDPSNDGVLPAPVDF

[31] = target: Metabotropic glutamate receptor 5 (Rattus norvegicus, UniProt P31424); assay: Identification of a glycine sulfonamide based non-MPEP site positive allosteric potentiator (PAM) of mGlu5 (calcium_assay).; format: functional
[32] = Late stage assay provider results from the probe development effort to identify selective inhibitors of heat shock protein 90 (HSP90): Absorbance-based cell proliferation assay in SKBR3 cells.; format: functional; details: SK-BR-3
[33] = Late stage assay provider results from the probe development effort to identify selective inhibitors of heat shock protein 90 (HSP90): Absorbance-based cell proliferation assay in MCF7 cells.; format: functional

Peroxisome proliferator-activated receptor gamma/Nuclear receptor coactivator 1, sequence (P37231 whole entry): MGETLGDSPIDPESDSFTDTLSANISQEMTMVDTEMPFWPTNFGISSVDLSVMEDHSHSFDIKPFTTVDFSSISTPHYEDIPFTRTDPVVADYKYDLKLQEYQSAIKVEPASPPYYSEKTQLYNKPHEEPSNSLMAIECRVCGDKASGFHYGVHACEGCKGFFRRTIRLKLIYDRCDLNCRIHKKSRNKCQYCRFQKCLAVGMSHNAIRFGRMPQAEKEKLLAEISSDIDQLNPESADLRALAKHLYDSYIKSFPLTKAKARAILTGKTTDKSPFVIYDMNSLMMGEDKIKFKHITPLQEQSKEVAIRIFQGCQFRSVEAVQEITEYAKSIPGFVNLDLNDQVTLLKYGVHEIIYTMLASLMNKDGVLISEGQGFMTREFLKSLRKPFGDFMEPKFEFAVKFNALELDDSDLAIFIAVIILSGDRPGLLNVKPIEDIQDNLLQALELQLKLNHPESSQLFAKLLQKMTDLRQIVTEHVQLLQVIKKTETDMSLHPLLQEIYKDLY
Peroxisome proliferator-activated receptor gamma/Nuclear receptor coactivator 1, sequence (Q15788 whole entry, further chain): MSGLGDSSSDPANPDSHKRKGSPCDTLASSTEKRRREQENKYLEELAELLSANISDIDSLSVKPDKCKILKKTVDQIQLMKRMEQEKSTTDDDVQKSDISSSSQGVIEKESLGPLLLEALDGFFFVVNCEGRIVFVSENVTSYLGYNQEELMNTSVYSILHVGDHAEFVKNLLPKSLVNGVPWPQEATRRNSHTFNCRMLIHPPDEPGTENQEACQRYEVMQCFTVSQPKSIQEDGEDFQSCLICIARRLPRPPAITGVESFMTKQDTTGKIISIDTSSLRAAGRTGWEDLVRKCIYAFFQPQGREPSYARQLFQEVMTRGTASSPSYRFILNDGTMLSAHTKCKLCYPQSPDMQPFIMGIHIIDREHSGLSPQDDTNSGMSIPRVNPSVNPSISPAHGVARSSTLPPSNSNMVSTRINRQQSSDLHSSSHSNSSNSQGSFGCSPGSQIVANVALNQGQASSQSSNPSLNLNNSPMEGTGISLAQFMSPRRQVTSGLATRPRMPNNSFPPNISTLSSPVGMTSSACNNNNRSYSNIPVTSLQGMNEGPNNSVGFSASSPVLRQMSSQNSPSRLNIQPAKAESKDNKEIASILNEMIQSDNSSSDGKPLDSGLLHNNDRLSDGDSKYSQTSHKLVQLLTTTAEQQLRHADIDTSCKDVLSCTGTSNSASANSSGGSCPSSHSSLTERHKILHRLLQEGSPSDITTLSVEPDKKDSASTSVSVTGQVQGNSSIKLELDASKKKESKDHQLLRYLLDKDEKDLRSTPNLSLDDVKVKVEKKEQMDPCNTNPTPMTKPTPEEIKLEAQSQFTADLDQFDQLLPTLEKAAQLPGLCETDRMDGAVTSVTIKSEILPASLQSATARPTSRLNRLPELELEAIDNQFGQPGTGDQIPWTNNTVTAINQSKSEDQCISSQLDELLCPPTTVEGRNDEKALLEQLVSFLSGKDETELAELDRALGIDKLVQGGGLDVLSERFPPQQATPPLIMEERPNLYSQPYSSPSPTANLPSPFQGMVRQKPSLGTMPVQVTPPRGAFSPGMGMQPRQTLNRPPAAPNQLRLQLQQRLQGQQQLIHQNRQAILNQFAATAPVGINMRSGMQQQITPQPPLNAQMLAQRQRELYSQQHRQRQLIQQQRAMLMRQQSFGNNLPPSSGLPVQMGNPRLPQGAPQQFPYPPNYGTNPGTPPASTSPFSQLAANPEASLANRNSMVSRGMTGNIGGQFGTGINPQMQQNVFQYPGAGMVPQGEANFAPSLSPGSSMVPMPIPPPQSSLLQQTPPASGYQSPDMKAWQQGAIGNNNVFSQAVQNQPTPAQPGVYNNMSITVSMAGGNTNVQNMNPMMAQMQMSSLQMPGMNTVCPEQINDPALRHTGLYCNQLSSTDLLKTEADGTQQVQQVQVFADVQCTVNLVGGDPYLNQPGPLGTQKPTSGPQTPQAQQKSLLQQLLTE
Peroxisome proliferator-activated receptor gamma/Nuclear receptor coactivator 2, sequence (P37231 whole entry): as the sequence (P37231 whole entry) above
Peroxisome proliferator-activated receptor gamma/Nuclear receptor coactivator 2, sequence (Q15596 whole entry, further chain): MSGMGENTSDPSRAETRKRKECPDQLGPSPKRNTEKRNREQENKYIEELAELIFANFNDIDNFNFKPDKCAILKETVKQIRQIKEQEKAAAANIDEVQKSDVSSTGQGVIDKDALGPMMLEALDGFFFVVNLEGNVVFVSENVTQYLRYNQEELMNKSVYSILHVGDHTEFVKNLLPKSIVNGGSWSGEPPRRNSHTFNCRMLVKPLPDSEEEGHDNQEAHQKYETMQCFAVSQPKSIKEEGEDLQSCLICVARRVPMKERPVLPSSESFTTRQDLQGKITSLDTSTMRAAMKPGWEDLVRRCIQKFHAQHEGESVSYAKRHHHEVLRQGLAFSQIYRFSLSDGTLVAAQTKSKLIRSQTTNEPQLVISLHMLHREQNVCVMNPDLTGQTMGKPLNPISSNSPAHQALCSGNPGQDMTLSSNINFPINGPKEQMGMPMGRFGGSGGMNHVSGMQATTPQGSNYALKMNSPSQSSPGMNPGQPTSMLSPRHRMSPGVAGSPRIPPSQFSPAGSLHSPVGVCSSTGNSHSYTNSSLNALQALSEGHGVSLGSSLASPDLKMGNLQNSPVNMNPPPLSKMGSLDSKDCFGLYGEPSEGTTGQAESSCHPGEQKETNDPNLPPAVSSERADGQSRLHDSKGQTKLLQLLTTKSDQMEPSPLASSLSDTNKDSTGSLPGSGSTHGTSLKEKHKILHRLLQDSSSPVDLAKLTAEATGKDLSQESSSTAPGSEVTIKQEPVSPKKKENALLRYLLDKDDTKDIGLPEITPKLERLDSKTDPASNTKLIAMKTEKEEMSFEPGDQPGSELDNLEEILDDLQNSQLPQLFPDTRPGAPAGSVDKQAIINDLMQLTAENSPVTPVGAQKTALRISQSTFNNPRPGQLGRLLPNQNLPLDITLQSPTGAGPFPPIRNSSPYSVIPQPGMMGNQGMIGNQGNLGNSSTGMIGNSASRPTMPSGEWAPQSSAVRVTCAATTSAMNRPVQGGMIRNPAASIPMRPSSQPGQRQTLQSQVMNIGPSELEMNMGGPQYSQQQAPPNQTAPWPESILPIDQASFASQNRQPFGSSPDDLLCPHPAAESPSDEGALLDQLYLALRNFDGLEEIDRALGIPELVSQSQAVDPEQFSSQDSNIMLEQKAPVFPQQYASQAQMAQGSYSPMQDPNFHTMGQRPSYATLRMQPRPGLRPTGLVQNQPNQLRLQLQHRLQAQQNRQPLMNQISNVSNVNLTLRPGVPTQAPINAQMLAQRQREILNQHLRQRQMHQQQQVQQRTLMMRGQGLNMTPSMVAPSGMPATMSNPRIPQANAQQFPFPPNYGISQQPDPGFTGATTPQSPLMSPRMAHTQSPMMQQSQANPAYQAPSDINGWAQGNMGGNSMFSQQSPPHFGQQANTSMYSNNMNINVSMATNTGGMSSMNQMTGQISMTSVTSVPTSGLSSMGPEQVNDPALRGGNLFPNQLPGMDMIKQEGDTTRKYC
Mucolipin-3, sequence (Q8TDD5 whole entry): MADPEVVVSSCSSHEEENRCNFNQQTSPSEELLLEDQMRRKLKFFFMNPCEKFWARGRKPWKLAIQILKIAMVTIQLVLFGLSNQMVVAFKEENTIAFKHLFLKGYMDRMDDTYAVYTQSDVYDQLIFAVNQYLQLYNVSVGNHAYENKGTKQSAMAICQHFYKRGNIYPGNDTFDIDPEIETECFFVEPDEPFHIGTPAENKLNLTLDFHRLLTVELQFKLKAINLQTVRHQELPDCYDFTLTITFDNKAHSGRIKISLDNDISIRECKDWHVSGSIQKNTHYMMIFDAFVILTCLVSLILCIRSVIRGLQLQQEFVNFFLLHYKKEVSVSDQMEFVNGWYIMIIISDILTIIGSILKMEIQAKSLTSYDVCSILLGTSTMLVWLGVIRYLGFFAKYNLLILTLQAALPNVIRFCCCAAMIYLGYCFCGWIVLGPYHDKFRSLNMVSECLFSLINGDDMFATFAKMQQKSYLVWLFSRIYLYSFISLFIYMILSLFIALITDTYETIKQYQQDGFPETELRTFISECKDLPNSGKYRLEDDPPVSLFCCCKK
Nonstructural protein 1, sequence (Q194T2 whole entry): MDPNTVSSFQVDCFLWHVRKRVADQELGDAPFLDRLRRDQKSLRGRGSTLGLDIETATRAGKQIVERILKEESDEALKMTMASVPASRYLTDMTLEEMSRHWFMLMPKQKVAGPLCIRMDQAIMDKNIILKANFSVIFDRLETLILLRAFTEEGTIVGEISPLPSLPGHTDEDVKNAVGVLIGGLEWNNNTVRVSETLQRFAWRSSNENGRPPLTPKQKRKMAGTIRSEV
fMet-Leu-Phe receptor, sequence (P21462 whole entry): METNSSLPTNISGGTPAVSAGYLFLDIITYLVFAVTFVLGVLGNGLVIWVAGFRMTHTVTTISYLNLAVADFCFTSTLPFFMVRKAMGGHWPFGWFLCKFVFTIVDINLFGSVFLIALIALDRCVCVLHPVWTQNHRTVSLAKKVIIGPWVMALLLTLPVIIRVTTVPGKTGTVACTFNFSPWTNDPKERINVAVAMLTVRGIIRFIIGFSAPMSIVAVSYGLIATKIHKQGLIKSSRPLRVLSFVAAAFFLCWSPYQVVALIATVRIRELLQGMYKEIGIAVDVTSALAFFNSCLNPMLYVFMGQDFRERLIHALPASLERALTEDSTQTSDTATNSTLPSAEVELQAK

Compound: Cc1cccc(N(C)S(=O)(=O)c2ccc(-c3cnc(C4CC4)o3)cc2)c1
- IC50 [1]: > 67.5 µM (inactive)
- AC50 [2]: 778 nM (active)
- AC50 [3]: 1.99 µM (active)
- EC50 [4]: < 120 nM (active)
- AC50 [5]: 76.2 µM (active)
- AC50 [6]: 13 µM (active)
- AC50 [7]: 1.89 µM (active)
- EC50 [8]: 40.7 µM (active)
- AC50 [9]: 1.19 µM (active)
- AC50 [10]: < 160 nM (active)
- AC50 [11]: 823 nM (active)
- AC50 [12]: 33.9 µM (active)
- IC50 [13]: > 67.5 µM (inactive)
- AC50 [14]: 3.95 µM (active)
- AC50 [15]: 562 nM (inconclusive)
- AC50 [16]: 366 nM (active)
- AC50 [17]: 364 nM (active)
- IC50 [18]: > 80 µM (inactive)
- AC50 [19]: 3.81 µM (active)

Compound: C=CCN1C=CC(=C/C=C(/C#N)C(=O)OCC)C=C1
- EC50 [20]: 6.09 µM (active)
- EC50 [21]: > 79.4 µM (not active)
- EC50 [22]: > 79.4 µM (not active)
- IC50 [23]: 72.5 µM (active)
- EC50 [24]: > 67.5 µM (inactive)
- EC50 [25]: > 79.4 µM (not active)
- EC50 [26]: 15.3 µM (not active)

Compound: Nc1ccc(Nc2ccccc2N)cc1
- AC50 [27]: 17.9 µM (active)
- IC50 [28]: 8.33 µM (active)
- Ki [29]: > 66.7 µM (inactive)
- EC50 [30]: 6.86 µM (active)

Compound: CS(=O)(=O)N(CC(=O)Nc1ccccn1)c1cc(C(F)(F)F)ccc1Cl
- EC50 [31]: 85 nM

Compound: CC(=O)c1ccc(NC(=O)c2ccc(=O)oc2)cc1
- IC50 [32]: > 100 µM (inactive)
- IC50 [33]: > 100 µM (inactive)
